Laboratory results: BindingDB's records for patent US10196390 (Nimbus Lakshmi, Inc., 2019)

Biological target: Tyrosine-protein kinase JAK2 (Homo sapiens, UniProt O60674)
Sequence (O60674 whole entry): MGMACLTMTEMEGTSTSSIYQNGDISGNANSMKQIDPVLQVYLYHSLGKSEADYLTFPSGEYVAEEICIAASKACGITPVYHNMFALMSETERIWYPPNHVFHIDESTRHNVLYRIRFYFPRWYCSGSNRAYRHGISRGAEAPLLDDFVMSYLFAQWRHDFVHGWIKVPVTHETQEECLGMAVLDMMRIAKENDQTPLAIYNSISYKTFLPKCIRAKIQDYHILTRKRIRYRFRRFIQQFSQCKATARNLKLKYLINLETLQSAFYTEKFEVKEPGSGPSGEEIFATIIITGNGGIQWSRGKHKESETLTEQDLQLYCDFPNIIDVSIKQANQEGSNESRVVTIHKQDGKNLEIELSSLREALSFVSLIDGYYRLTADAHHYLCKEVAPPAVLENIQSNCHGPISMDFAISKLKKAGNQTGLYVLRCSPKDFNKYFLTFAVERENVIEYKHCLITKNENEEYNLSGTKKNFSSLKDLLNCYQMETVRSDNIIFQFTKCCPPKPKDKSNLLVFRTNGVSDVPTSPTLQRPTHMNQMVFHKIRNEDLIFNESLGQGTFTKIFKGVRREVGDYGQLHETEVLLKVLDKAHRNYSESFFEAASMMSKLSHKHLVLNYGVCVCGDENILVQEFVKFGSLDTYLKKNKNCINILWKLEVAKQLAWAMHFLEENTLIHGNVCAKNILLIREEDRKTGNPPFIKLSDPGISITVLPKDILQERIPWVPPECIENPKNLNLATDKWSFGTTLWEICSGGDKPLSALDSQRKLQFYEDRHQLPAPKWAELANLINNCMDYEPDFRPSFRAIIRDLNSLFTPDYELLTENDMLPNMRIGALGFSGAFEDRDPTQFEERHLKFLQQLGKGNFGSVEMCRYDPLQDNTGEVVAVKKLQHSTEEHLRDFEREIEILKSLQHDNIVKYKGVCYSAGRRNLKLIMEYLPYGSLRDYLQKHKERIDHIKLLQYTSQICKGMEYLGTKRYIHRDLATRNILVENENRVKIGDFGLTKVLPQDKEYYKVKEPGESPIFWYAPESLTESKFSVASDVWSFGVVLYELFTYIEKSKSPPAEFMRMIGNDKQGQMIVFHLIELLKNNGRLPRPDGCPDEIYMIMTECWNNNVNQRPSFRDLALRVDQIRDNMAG

Structure (SMILES)	Ki
Cc1ccc(Nc2nc(-c3c(F)cccc3F)nc3c2C(=O)NC3)cc1 [US10196390, Compound I-21]	> 1000 nM
COC(=O)Cc1ncc(Nc2nc(-c3c(F)cccc3F)nc3c2C(=O)NC3)cn1 [US10196390, Compound I-166]	> 1000 nM
CCNC(=O)Cc1ncc(Nc2nc(-c3c(F)cccc3F)nc3c2C(=O)NC3)cn1 [US10196390, Compound I-169]	> 1000 nM
O=C1NCc2nc(-c3c(F)cccc3F)nc(Nc3ccc(OC(F)(F)F)cc3)c21 [US10196390, Compound I-184]	> 1000 nM
O=C1NCc2nc(-c3c(F)cccc3F)nc(Nc3ccc(C4CCCCC4)cc3)c21 [US10196390, Compound I-197]	> 1000 nM
O=C1NCc2nc(-c3c(F)cccc3F)cc(Nc3ccc(N4CCCC4)cn3)c21 [US10196390, Compound I-205]	> 1000 nM
O=C1NCc2nc(-c3c(F)cccc3F)cc(Nc3ccc(N4CCC5(CC5)C4)cn3)c21 [US10196390, Compound I-233]	> 1000 nM
O=C1NCc2nc(-c3c(F)cccc3F)cc(Nc3ccc(F)cn3)c21 [US10196390, Compound I-234]	< 10 nM
O=C1NCc2nc(-c3c(F)cccc3F)nc(Nc3ccc(S(=O)(=O)C(F)(F)F)cc3)c21 [US10196390, Compound I-236]	> 1000 nM
CC(C)N1CCN(c2ccc(Nc3cc(-c4c(F)cccc4F)nc4c3C(=O)NC4)nc2)CC1 [US10196390, Compound I-256]	< 10 nM
COc1ccc(Nc2cc(-c3c(F)cccc3C#N)nc3c2C(=O)NC3)nc1 [US10196390, Compound I-258]	< 10 nM
CCN(CC)C(=O)c1ccc(Nc2cc(-c3c(F)cccc3F)nc3c2C(=O)NC3)cc1 [US10196390, Compound I-259]	< 10 nM
C[C@H]1COC[C@H](C)N1c1ccc(Nc2cc(-c3c(F)cccc3F)nc3c2C(=O)NC3)nc1 [US10196390, Compound I-264]	< 10 nM
CC1(C)CCC(=O)N1c1ccc(Nc2cc(-c3c(F)cccc3F)nc3c2C(=O)NC3)nc1 [US10196390, Compound I-272]	< 10 nM
CN(c1ccc(Nc2cc(-c3c(F)cccc3F)nc3c2C(=O)NC3)nc1)C(C)(C)C [US10196390, Compound I-274]	< 10 nM
O=C1NCc2nc(-c3c(F)cccc3F)cc(Nc3ccc(NS(=O)(=O)C(F)F)cn3)c21 [US10196390, Compound I-277]	< 10 nM
CC(C)(C)Nc1ccc(Nc2cc(-c3c(F)cccc3F)nc3c2C(=O)NC3)nc1 [US10196390, Compound I-278]	< 10 nM
CCNC(=O)c1ccc(Nc2cc(-c3c(F)cccc3C#N)nc3c2C(=O)NC3)nc1 [US10196390, Compound I-282]	< 10 nM
O=C1NCc2nc(-c3c(F)cccc3F)cc(Nc3ccc(C(=O)N4CCC(F)(F)CC4)cc3)c21 [US10196390, Compound I-283]	< 10 nM
C[C@@H]1COC[C@@H](C)N1C(=O)c1ccc(Nc2cc(-c3c(F)cccc3F)nc3c2C(=O)NC3)cc1 [US10196390, Compound I-285]	< 10 nM
N#Cc1cccc(F)c1-c1cc(Nc2ccc(C(=O)N3CCOCC3)cc2)c2c(n1)CNC2=O [US10196390, Compound I-287]	< 10 nM
CC1CC(O)CC(C)N1c1ccc(Nc2cc(-c3c(F)cccc3F)nc3c2C(=O)NC3)nc1 (stereo not drawn) [US10196390, Compound I-288]	< 10 nM
Cc1ccc(Nc2nc(-c3c(F)cccc3F)nc3c2C(=O)NC3)cc1F [US10196390, Compound I-292]	> 1000 nM
